# Measured values published in patent publication US7470434B1, “Methods and compositions for blocking microbial adherence to eukaryotic cells” (priority 2007, dated 2008).
# Experiments:
# Format in all cases: in vivo, human
# [1] = tested on: diarrheal agent (nature not known); test: Amelioration of infectious diarrhea by oral isoleucine solution
# Method: In this example isoleucine was administered to treat infectious diarrhea. In this example three individuals were naturally innoculated by a common agent. The nature of the diarrheal agent is not known. The duration of diarrhea was consistent with an infectious etiology. Isoleucine was utilized based on the hypothesis that reduction in microbial adherence would likely limit the continued re-infection of the gut wall by the agent, and/or prevent attachment of opportunistic commensal organisms.
# Three members of a family traveling in the Middle East (MZ, BZ, JZ) contracted watery diarrhea, associated with food intolerance, following a meal they shared at a restaurant. Each individual had been in excellent health without prior history of GI complaints. All were unmedicated, including aspirin or antihistanines. […] Diarrhea was watery, without gross blood, minimal mucous, slight fever with chills, no nausea, and persistence of hunger. Peristalsis was vigorous and increased by ingestion of food. Each individual was placed on a diet restricted to clear liquids (juices and soda), digestible carbohydrates (bread, rice, candy). No medications were administered.
# Six days after ingestion of the diarrheal agent, one individual was begun on oral isoleucine (ILE) therapy, while the other two continued on restricted diets. ILE (#E-2025 Bachem, lot 511191) was dissolved in distilled water to 0.001%. One glass of ILE solution (about 250 ml) was consumed every several hours. A total of about 4 liters was consumed over 3½ days. A reduction in stool frequency was noted within 12 hours of initiation of ILE therapy.
# BZ and JZ both continued to experience diarrhea unabated until about 11 days after ingestion of the infectious agent, with stool frequency decreasing noticeably. […] Thus, isoleucine therapy was associated with a shortening of the duration of diarrhea by approximately three days.
# [2] = Amelioration of irritable bowel syndrome by isoleucine in yogurt
# Method: In this example isoleucine was administered to individuals who experienced irritable bowel syndrome (IBS). IBS is a loosely defined condition associated with bowel discomfort including abdominal bloating, nausea, pain and a sense of incomplete bowel movements. The etiology underlying IBS is unknown. It is our hypothesis that IBS results from adherence of certain “pathogenic” commensal organisms to the epithelial lining of certain segments of the GI tract, resulting in disturbance of normal host-bacteria relationships. […] Two women, each in their mid-50's, presented with a history of IBS of over 20 years, in each case. In each, IBS was characterized by a sense of bloating experienced after eating cooked or raw vegetables, fruits, and meat. Each individual experienced urgency to move her bowels several times a day to an extent that often awakened the individuals from sleep. Bloating was accompanied by abdominal discomfort, described as mild cramps. Individuals felt “gassy” most of the day. Each individual was given isoleucine, 1 tsp, twice a day, each dose mixed in ½ cup of yogurt. The yogurt was included to promote reinoculation of the GI tract with probiotic “good” bacteria. In each case, it was known from previous experience that yogurt itself had little effect on the IBS experienced by these individuals. Within 2 day so isoleucine administration, bloating, urgency to defecate, and gassiness had disappeared. Both individuals described the state of their bowel function as “normal”, for the first time in 20 years. […] Each was then withdrawn from isoleucine, and provided yogurt unsupplemented with isoleucine. Within about 2 days both women recorded a reappearance of the former symptoms of IBS.
# [3] = tested on: bacteria adherent to gingival epithelial cells; test: Treatment of gingival infection: microbial adherence to gingival epithelial cells (Giemsa-stained gingival scrapings); settings: for Gingival epithelial cells with 0 Bacteria / Gingival epithelial cells with 1-10 Bacteria / Gingival epithelial cells with 10-100 Bacteria / Gingival epithelial cells with Contiguous lawn: powder on gums twice daily
# Excerpt: In this example isoleucine was applied as a pure crystalline powder directly to the gums. The individuals were normal human volunteers. Each individual had clinically evident low grade gingivitis, as determined by the puffiness of the gingival margin and a history of some bleeding during normal dental brushing. Oral health care comprised twice daily flossing and dental brushing with a non-medicated toothpaste. No oral antiseptic was used. The individuals were not taking antibiotics. Isoleucine was applied by application of powder on the fingertip to the outer and inner gum margins of the upper and lower jaws. The entirety of the gingival surface was covered manually, twice daily. The AM application was performed following breakfast, immediately after brushing. The PM application was conducted prior to retiring for sleep.
# Gingival surface was gently scrapped with the side of a rectangular glass cover slip and the material described was applied to a glass microscope slide and air-dried. The slide was stained in concentrated Giemsa stain for 1 min, then destained in water for 5 min. The slide was then air-dried and mounted with a cover slip cemented with Permount. Slides were examined by light microscopy at 100× and 400× magnification. Under these staining conditions bacteria were clearly visualized as dark blue particles against the pale gray epithelial cells.
# Gingival scrapings were taken in the morning prior to normal oral care and prior to eating. Prior to scraping, the subject rinsed the mouth with a cup of water to wash free particulate matter, unattached cells, and bacteria.
# Scrapings were taken 3 days and 1 day prior to isoleucine administration and 1, 3, 5, and 7 days during isoleucine application. […] The bacteria adherent were represented by several different species, distinguished by morphology. […] At least 200 bacteria were counted on the average on each cell.
# bacterial vaginosis = test: Amelioration of bacterial vaginosis by local isoleucine powder
# Method: In this example isoleucine was administered locally to the vagina to treat the symptoms of bacterial vaginosis. By inhibiting the adherence of bacteria to the wall of the vagina, microbial growth, inflammation, and associated signs of malodorous discharge and symptoms such as pruritis can be treated. A person, with a normal menstrual cycle and in excellent health, experienced vaginal irritation and malodorous discharge associated with their cycle, generally beginning several days prior to the onset of their period. Isoleucine was self-administered as a powder locally within the vaginal cavity digitally, twice a day. Within 2 days symptoms of vaginosis disappeared. Isoleucine therapy was continued for several days following termination of menstrual discharge, and then stopped. […] Isoleucine was again administered during the following months, cycled as described initially.
# [4] = 3rd day of ILE therapy, individual
# [5] = Day 1 of isoleucine application
# [6] = Day 3 of isoleucine application
# [7] = Day 7 of isoleucine application
structure (smiles),measurement,setting,value
CC[C@H](C)[C@H](N)C(=O)O [isoleucine],Food tolerance,[1]; [4],cheese and chicken tolerated
same,Stools passed,[1]; [4],no stools were passed
same,Shortening of the duration of diarrhea,[1]; MZ on isoleucine versus BZ and JZ on restricted diet only,approximately three
same,Day following ILE treatment by which a normal stool was passed and the diarrheal episode had passed,[1]; individual MZ,≤ 4 days
same,Time to reduction in stool frequency after initiation of ILE therapy,"[1]; one individual, 0.001% ILE in distilled water, about 250 ml every several hours, begun six days after ingestion of agent",≤ 12 h
same,Response during maintenance,[2]; maintained on isoleucine for 1 month,consistent response
same,State of bowel function as described by the individuals,[2]; on isoleucine 1 tsp twice a day in yogurt,normal
same,Time to reappearance of former symptoms of IBS after withdrawal from isoleucine,[2]; yogurt unsupplemented with isoleucine,≤ 2 days
same,Gingival epithelial cells with 0 Bacteria,[3]; [5],0 % cells
same,Gingival epithelial cells with 1-10 Bacteria,[3]; [5],10 % cells
same,Gingival epithelial cells with 10-100 Bacteria,[3]; [5],10 % cells
same,Gingival epithelial cells with Contiguous lawn,[3]; [5],80 % cells
same,Adherent bacteria in gingival smear,[3]; Day 3,dramatic reduction
same,"Cells fully covered with bacteria, of 100 cells examined",[3]; Day 3,40
same,Microcolonies (contiguous groupings of greater than 4 organisms) on cells,[3]; Day 3,Few
same,Neutrophils in gingival smear (sign of inflammation),[3]; Day 3,No neutrophils were evident
same,Total adherent bacteria per cell (most cells),[3]; Day 3,< 100
same,Gingival epithelial cells with 0 Bacteria,[3]; [6],15 % cells
same,Gingival epithelial cells with 1-10 Bacteria,[3]; [6],15 % cells
same,Gingival epithelial cells with 10-100 Bacteria,[3]; [6],30 % cells
same,Gingival epithelial cells with Contiguous lawn,[3]; [6],40 % cells
same,Cells completely free of bacteria,[3]; Day 7,80%
same,Cells fully covered with adherent bacteria,[3]; Day 7,5%
same,Cells with 1 to 10 bacteria/cell,[3]; Day 7,15%
same,Breath as described by an examiner,"[3]; Day 7, in the AM, prior to oral hygiene",free of odor
same,Gingival epithelial cells with 0 Bacteria,[3]; [7],80 % cells
same,Gingival epithelial cells with 1-10 Bacteria,[3]; [7],15 % cells
same,Gingival epithelial cells with 10-100 Bacteria,[3]; [7],0 % cells
same,Gingival epithelial cells with Contiguous lawn,[3]; [7],5 % cells
same,Change in the number of epithelial cells covered with a dense coat of bacteria,"[3]; gingival smear, Day 1 following initiation",little change
same,Status following cessation of isoleucine administration,bacterial vaginosis; after therapy continued several days past menstrual discharge,remained symptom free
same,Overall outcome of chronic vaginosis,"bacterial vaginosis; repeated cycled administration in following months, based on symptoms and signs",effectively cured
